Broadly, the IC50 is the midpoint of a concentration-inhibition curve.

The structures appear in SMILES notation.

The subject of the test is HSV-1. Nature of the test: HSV-1 infection of Vero 76 cells, viral DNA detected by hybridization capture (chemiluminescence). The test is classed as cell-based. The following applies: Human alphaherpesvirus 1; HSV-1 in Vero 76 cells, MOI=0.001, compounds incubated 40–48 hours at 37° C. The protocol: Vero 76 cells were maintained in MEM with Earle's salts, L-glutamine, 8% FBS (Hyclone, A-1111-L) and 100 units/mL Penicillin-100 μg/mL Streptomycin. For assay conditions, FBS was reduced to 2%. Cells are seeded into 96-well tissue culture plates at a density of 5×10^4 cells/well after being incubated for 45 min at 37° C. in the presence of HSV-1 or HSV-2 (MOI=0.001). Test compounds are added to the wells and the plates are incubated at 37° C. for 40–48 hours. Cell lysates are prepared as follows: media was removed and replaced with 150 μL/well 0.2 N NaOH with 1% Igepal CA 630 or NP-40. Plates were incubated up to 14 days at room temperature in a humidified chamber to prevent evaporation.
For the detection probe, a gel-purified, digoxigenin-labeled, 710-bp PCR fragment of the HSV UL-15 sequence was utilized. PCR conditions included 0.5 μM primers, 180 μM dTTP, 20 μM dUTP-digoxigenin (Boehringer Mannheim 1558706), 200 μM each of dATP, dCTP, and dGTP, 1×PCR Buffer II (Perkin Elmer), 2.5 mM MgCl2, 0.025 units/μL of AmpliTaq Gold polymerase (Perkin Elmer), and 5 ng of gel-purified HSV DNA per 100 μL Extension conditions were 10 min at 95° C., followed by 30 cycles of 95° C. for 1 min, 55° C. for 30 sec. and 72° C. for 2 min. The amplification was completed with a 10-min incubation at 72° C. Primers were selected to amplify a 728 bp probe spanning a section of the HSV1 UL15 open reading frame (nucleotides 249–977). Single-stranded transcripts were purified with Promega M13 Wizard kits. The final product was mixed 1:1 with a mixture of 6 M GuSCN, 100 mM EDTA and 200 μg/mL herring sperm DNA and stored at 4° C.
The capture DNA plasmid (HSV UL13 region in pUC) was linearized by cutting with Xba I, denatured for 15 min at 95° C. and diluted immediately into Reacti-Bind DNA Coating Solution (Pierce, 17250, diluted 1:1 with TE buffer, pH 8) at 1 ng/μL 75 μL/well were added to Corning (#3922 or 9690) white 96-well plates and incubated at room temperature for at least 4 hrs before washing twice with 300 μL/well 0.2×SSC/0.05% Tween-20 (SSC/T buffer). The plates were then incubated overnight at room temperature with 150 μL/well 0.2 N NaOH, 1% IGEPAL and 10 μg/mL herring sperm DNA.
Twenty-seven (27) μL of lysate was combined with 45 μL of hybridization solution (final concentration: 3M GuSCN, 50 mM EDTA, 100 μg/ml salmon sperm DNA, 5×Denhardt's solution, 0.25×APE, and 5 ng of the digoxigenin-labeled detection probe). APE is 1.5 M NH4-acetate, 0.15 M NH4H2 phosphate, and 5 mM EDTA adjusted to pH 6.0 Mineral oil (50 μL) was added to prevent evaporation. The hybridization plates were incubated at 95° C. for 10 minutes to denature the DNA, then incubated at 42° C. overnight. The wells were washed 6× with 300 μl/well SSC/T buffer then incubated with 75 μL/well anti-digoxigenin-HRP-conjugated antibody (Boehringer Mannheim 1207733, 1:5000 in TE) for 30 min at room temperature. The wells were washed 6× with 300 μL/well with PBS/0.05% Tween-20 before 75 μL/well SuperSignal LBA substrate (Pierce) was added. The plates were incubated at room temperature for 30 minutes and chemiluminescence was measured in a Wallac Victor reader.
`Nc1ccn2nc(-c3ccc(F)cc3)c(-c3ccnc(NC4CCCC4)n3)c2c1` [Example 3, 3-[2-(Cyclopentylamino)-4-pyrimidinyl]2-(4-fluorophenyl)pyrazolo[1,5-α]pyridin-5-amine] gave an IC50 of 5000 nM.
The figure for `COc1ccc(-c2nn3ccc(NC(C)C)cc3c2-c2ccnc(NC3CCCC3)n2)cc1` [Example 12, 3-[2-(Cyclopentylamino)-4-pyrimidinyl]-N-isopropyl-2-(4-methoxyphenyl)pyrazolo[1,5-α]pyridin-5-amine] is 800 nM; for `c1cc(-c2c(-c3ccc(OCC4CC4)cc3)nn3ccc(NC4CCCC4)cc23)nc(NC2CCCC2)n1` [Example 20, N-Cyclopentyl-3-[2-(cyclopentylamino)-4-pyrimidinyl]-2-[4-(cyclopropylmethoxy)phenyl]pyrazolo[1,5-α]pyridin-5-amine] it is 300 nM; for `Fc1ccc(-c2nn3cc(NC4CCCC4)ccc3c2-c2ccnc(NC3CCCC3)n2)cc1` [Example 6, N-Cyclopentyl-3-[2-(cyclopentylamino)-4-pyrimidinyl]-2-(4-fluorophenyl)pyrazolo[1,5-α]pyridin-6-amine] it is 1000 nM.
With `CC(C)COc1ccc(-c2nn3ccc(NC4CCCC4)cc3c2-c2ccnc(NC3CCCC3)n2)cc1` [Example 19, N-Cyclopentyl-3-[2-(cyclopentylamino)-4-pyrimidinyl]-2-(4-isobutoxyphenyl)pyrazolo[1,5-α]pyridin-5-amine], half-maximal inhibition (IC50) was put at 500 nM.
Molecule `Fc1ccc(-c2nn3ccc(NC4CCCC4)cc3c2-c2ccnc(NC3CCCC3)n2)cc1` [Example 2, N-Cyclopentyl-3-[2-(cyclopentylamino)-4-pyrimidinyl]-2-(4-fluorophenyl)pyrazolo[1,5-α]pyridin-5-amine] returned an IC50 of 500 nM.
The figure for `CS(=O)(=O)Nc1ccn2nc(-c3ccc(F)cc3)c(-c3ccnc(NC4CCCC4)n3)c2c1` [Example 4, N-[3-[2-(Cyclopentylamino)-4-pyrimidinyl]-2-(4-fluorophenyl)pyrazolo[1,5-α]pyridin-5-yl]methanesulfonamide] is 2000 nM; for `COCCNc1ccn2nc(-c3ccc(F)cc3)c(-c3ccnc(NC4CCCC4)n3)c2c1` [Example 8, 3-[2-(Cyclopentylamino)-4-pyrimidinyl]-2-(4-fluorophenyl)-N-(2-methoxyethyl)pyrazolo[1,5-α]pyridin-5-amine] it is 1000 nM.
The figure for `CC(C)Nc1ccn2nc(-c3ccc(F)cc3)c(-c3ccnc(NC4CCCC4)n3)c2c1` [Example 9, 3-[2-(Cyclopentylamino)-4-pyrimidinyl]-2-(4-fluorophenyl)-N-isopropylpyrazolo[1,5-α]pyridin-5-amine] is 2900 nM.
The molecule `COc1ccc(-c2nn3ccc(NC4CCCC4)c(Br)c3c2-c2ccnc(NC3CCCC3)n2)cc1` [Example 15, 4-Bromo-N-cyclopentyl-3-[2-(cyclopentylamino)pyrimidin-4-yl]-2-(4-methoxyphenyl)pyrazolo[1,5-α]pyridin-5-amine] returned an IC50 of 3500 nM.
The same measure for `COc1ccc(-c2nn3ccc(NC4CCCC4)cc3c2-c2ccnc(NC3CCCC3)n2)cc1` [Example 10, N-Cyclopentyl-3-[2-(cyclopentylamino)-4-pyrimidinyl]-2-(4-methoxyphenyl)-pyrazolo[1,5-α]pyridin-5-amine]: 200 nM; for `CCCCNc1cc(-c2c(-c3ccc(F)cc3)nn3cccc(NCCCC)c23)ccn1` [Example 17, N-Butyl-3-[2-(butylamino)pyridin-4-yl]-2-(4-fluorophenyl)pyrazolo[1,5-α]pyridin-4-amine]: 2500 nM.
Molecule `Oc1ccc(-c2nn3ccc(NC4CCCC4)cc3c2-c2ccnc(NC3CCCC3)n2)cc1` [Example 18, 4-{5-(Cyclopentylamino)-3-[2-(cyclopentylamino)-4-pyrimidinyl]pyrazolo[1,5-α]pyridin-2-yl}phenol] returned an IC50 of 1200 nM.
The figure for `Fc1ccc(-c2nn3ccc(NC4CCCC4)c(Br)c3c2-c2ccnc(NC3CCCC3)n2)cc1` [Example 13, 4Bromo-N-cyclopentyl-3-[2-(cyclopentylamino)pyrimidin-4-yl]-2-(4-fluorophenyl)pyrazolo[1,5-α]pyridin-5-amine] is 3000 nM.
The figure for `Fc1ccc(-c2nn3ccc(NC4CCCC4)c(Cl)c3c2-c2ccnc(NC3CCCC3)n2)cc1` [Example 14, 4-Chloro-N-cyclopentyl-3-[2-(cyclopentylamino)pyrimidin-4-yl]-2-(4-fluorophenyl)pyrazolo[1,5-α]pyridin-5-amine] is 1900 nM; for `CC(C)Nc1ccc2c(-c3ccnc(NC4CCCC4)n3)c(-c3ccc(F)cc3)nn2c1` [Example 7, 3-[2-(Cyclopentylamino)-4-pyrimidinyl]-2-(4-fluorophenyl)-N-isopropylpyrazolo[1,5-α]pyridin-6-amine] it is 1200 nM; for `Nc1ccc2c(-c3ccnc(NC4CCCC4)n3)c(-c3ccc(F)cc3)nn2c1` [Example 5, 3-[2-(cyclopentylamino)-4-pyrimidinyl]-2-(4-fluorophenyl)pyrazolo[1,5-α]pyridin-6-amine] it is 240 nM.
The molecule `COc1ccc(-c2nn3ccc(NC4CCCC4)c(Cl)c3c2-c2ccnc(NC3CCCC3)n2)cc1` [Example 16, 4-Chloro-N-cyclopentyl-3-[2-(cyclopentylamino)pyrimidin-4-yl]-2-(4-methoxyphenyl)pyrazolo[1,5-α]pyridin-5-amine] registered an IC50 of 2800 nM.

These data come from patent US7141569B2, “Antiviral pyrazolopyridine compounds” (SmithKline Beecham Corporation, priority 2001, dated 2006).
